For experiment [1], the system named is human NPM-ALK overexpressing murine BaF3 cells. In words: Growth inhibition of BaF3-NPM-ALK cells (Yopro staining). The format is cell-based. Conditions: Mus musculus, 48 h; two days incubation. The source says:
The expression of NPM-ALK is achieved by transfecting the BaF3 cell line with an expression vector pCIneo™ (Promega Corp., Madison Wis., USA) coding for NPM-ALK and subsequent selection of G418 resistant cells. Non-transfected BaF3 cells depend on IL-3 for cell survival. In contrast NPM-ALK expressing BaF3 cells (named BaF3-NPM-ALK hereinafter) can proliferate in the absence of IL-3 because they obtain proliferative signal through NPM-ALK kinase. Putative inhibitors of the NPM-ALK kinase therefore abolish the growth signal and result in antiproliferative activity. […] The inhibitory activity of the compounds of formula I is determined, briefly, as follows: BaF3-NPM-ALK cells (15,000/microtitre plate well) are transferred to 96-well microtitre plates. […] The growth of the BaF3-NPM-ALK cells is measured by means of Yopro™ staining [T Idziorek et al. J. Immunol. […] Cell lysis is completed within 60 min at room temperature and total amount of Yopro bound to DNA is determined by measurement using the Cytofluor II 96-well reader (PerSeptive Biosystems) with the following settings: Excitation (nm) 485/20 and Emission (nm) 530/25. IC50 values are determined by a computer-aided system using the formula: IC50=[(ABStest−ABSstart)/(ABScontrol−ABSstart)]×100. […]

In experiment [2] the test system is Mouse mammary carcinoma 4T1 cells. In words: Anchorage-independent tumor cell growth assay. The format is cell-based. To be noted: Mus musculus, 4T1. Here is the method: Cells are cultured for 2 h and inhibitors are added at various concentrations in a final concentration of 0.1% DMSO. After 48 h, cell growth is assayed with the cell counting kit-8 (Wako Pure Chemical), which uses a water soluble tetrazolium salt WST8. Twenty μL of the reagent is added into each well and cells are further cultured for 2 h. The optical density is measured at 450 nm.

The target in experiment [3] is FAK (Mus musculus, UniProt P34152). In words: Phos IC50 (phosphorylation). The format is cell-based.
Experiment [4] concerns the target GST-ALK protein tyrosine kinase (Homo sapiens, UniProt Q9UM73). In words: In vitro enzyme assay using GST-ALK protein tyrosine kinase (filter binding assay). The experiment is classed as biochemical. To be noted: b80; assay not specified further; lower end printed as <0.5; read-out: IC50, inhibition of tyrosine kinase activity of anaplastic lymphoma kinase (ALK). The protocol:
Assays are incubated for 10 min at ambient temperature. […] Following washing (0.5% H3PO4), plates are counted in a liquid scintillation counter. IC50 values are calculated by linear regression analysis of the percentage inhibition.

Experiment [5] has as its target IGF-IR (Homo sapiens, UniProt P08069). In words: Cellular Capture ELISA of IGF-I induced autophosphorylation of the IGF-IR. The format is cell-based. To be noted: read-out: IGF-1R IC50. Here is the method: In this assay the activity of the compounds of the invention against Insulin-like growth factor I (IGF-I) induced autophosphorylation of the IGF-IR is determined.

The target of experiment [6] is Focal Adhesion Kinase (FAK) (Homo sapiens, UniProt Q05397). In words: FAK assay system (Focal Adhesion Kinase inhibition). The experiment is classed as biochemical. To be noted: read-out: FAK IC50.
For experiment [7], the system named is T Cell. In words: T Cell Migration. The experiment is classed as cell-based. Conditions: T-cell.

SMILES strings stand for the structures.

Sequence of Focal Adhesion Kinase (FAK) (Q05397 384-706): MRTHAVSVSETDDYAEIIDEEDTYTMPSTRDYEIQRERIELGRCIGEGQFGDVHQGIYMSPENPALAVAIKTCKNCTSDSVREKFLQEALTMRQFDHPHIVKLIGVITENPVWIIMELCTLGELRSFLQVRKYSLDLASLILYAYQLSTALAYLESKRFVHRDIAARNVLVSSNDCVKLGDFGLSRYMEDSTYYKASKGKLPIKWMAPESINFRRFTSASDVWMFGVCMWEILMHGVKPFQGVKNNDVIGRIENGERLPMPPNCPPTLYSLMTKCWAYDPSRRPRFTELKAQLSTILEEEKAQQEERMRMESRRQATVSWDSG
Sequence of IGF-IR (P08069 31-1367): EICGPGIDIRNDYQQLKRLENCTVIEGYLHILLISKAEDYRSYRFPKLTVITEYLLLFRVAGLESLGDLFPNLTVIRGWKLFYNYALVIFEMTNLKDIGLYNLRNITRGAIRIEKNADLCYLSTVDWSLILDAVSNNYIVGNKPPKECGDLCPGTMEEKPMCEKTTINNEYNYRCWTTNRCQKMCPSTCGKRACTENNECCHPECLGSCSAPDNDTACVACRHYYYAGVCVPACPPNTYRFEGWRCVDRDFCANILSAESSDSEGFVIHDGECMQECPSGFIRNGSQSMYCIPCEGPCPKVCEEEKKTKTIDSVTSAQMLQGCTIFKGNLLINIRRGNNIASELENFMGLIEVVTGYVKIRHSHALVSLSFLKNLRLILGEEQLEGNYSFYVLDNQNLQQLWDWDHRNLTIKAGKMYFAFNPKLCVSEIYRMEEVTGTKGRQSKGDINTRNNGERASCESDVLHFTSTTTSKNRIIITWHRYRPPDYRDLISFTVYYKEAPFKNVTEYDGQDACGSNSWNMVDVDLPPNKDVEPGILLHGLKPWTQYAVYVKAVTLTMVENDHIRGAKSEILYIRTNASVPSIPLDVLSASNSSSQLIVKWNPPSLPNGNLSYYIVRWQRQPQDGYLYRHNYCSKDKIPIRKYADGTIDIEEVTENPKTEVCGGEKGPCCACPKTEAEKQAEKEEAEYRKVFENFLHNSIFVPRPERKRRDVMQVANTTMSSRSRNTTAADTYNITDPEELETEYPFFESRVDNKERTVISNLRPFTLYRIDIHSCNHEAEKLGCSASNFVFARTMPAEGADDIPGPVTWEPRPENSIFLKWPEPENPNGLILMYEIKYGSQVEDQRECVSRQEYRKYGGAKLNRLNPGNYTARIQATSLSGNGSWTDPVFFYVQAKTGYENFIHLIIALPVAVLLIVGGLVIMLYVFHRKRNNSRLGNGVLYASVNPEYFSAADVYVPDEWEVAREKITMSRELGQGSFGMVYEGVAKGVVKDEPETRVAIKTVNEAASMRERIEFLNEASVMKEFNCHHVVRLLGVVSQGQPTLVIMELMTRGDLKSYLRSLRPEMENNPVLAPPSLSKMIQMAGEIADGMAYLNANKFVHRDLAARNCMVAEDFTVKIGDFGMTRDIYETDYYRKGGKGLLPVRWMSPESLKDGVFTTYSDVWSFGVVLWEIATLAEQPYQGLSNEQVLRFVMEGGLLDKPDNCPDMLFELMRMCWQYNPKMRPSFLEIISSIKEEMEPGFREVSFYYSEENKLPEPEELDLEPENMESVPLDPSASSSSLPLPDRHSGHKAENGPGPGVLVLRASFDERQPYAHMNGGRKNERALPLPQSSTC
Sequence of FAK (P34152 2-1052): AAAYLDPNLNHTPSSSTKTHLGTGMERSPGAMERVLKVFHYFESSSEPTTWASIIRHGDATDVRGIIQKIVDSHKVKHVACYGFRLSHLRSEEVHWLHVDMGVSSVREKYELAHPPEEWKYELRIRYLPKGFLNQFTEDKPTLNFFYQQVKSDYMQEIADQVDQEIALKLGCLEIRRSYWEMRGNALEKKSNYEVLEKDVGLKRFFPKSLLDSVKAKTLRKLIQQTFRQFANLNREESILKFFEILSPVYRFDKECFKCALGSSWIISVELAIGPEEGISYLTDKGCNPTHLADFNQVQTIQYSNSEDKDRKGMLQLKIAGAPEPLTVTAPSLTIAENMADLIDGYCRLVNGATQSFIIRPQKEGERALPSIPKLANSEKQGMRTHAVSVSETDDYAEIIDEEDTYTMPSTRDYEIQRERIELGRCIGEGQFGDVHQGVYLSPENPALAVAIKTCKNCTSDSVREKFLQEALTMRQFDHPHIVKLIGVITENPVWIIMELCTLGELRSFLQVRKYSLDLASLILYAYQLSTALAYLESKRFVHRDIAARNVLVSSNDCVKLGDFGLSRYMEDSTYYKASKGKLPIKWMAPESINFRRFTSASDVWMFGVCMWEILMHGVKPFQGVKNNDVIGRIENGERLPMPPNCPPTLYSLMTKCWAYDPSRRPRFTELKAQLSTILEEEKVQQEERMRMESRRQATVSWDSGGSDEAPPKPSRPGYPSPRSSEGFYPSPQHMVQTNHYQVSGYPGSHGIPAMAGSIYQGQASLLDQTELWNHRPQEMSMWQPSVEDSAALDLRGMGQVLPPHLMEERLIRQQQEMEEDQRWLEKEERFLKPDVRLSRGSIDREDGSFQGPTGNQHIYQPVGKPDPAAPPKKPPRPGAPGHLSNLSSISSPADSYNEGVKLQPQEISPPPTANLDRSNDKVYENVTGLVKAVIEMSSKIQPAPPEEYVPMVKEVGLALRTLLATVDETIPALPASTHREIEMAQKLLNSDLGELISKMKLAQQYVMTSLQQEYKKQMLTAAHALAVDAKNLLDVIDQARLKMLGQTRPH
Sequence of GST-ALK protein tyrosine kinase (Q9UM73 1116-1392): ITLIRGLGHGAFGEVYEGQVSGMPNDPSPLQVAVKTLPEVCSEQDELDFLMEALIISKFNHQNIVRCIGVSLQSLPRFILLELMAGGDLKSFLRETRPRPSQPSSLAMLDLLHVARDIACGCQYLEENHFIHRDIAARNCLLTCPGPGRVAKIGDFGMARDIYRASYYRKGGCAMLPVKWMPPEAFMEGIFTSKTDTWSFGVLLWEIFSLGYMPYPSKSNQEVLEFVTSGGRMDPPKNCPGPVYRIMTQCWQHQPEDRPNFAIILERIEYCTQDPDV

`CNC(=O)c1ccccc1Nc1nc(Nc2ccc(N3CCOCC3)cc2OC)ncc1Cl` [2-[5-chloro-2-(2-methoxy-4-morpholin-4-yl-phenylamino)-pyrimidin-4-ylamino]-N-methyl-benzamide]: inhibition in experiment [1] was half-maximal at 0.097 µM (IC50).
`CNC(=O)c1ccccc1Nc1nc(Nc2ccc(N3CCN4CCOC[C@H]4C3)cc2OC)ncc1Cl` [Example 7-15]: the IC50 in experiment [2] is 0.19 µM; in experiment [3] it was 0.06 µM; in experiment [4] it was 0.0005 to 0.2 µM; in experiment [5], 0.26 µM; in experiment [6] it was 0.0045 µM.
In the same order, the values of `CCCS(=O)(=O)c1ccccc1Nc1nc(Nc2ccc(N3CCC(N4CCCCC4)CC3)cc2OC)ncc1Cl` [Example 26-3] are 0.13 µM, 0.1 µM, 0.0005 to 0.2 µM, 0.23 µM and 0.0014 µM.
For the compound `CCCS(=O)(=O)c1ccccc1Nc1nc(Nc2ccc(N3CCC(O)CC3)cc2OC)ncc1Cl` [Example 26-4], the IC50 came out at 0.43 µM in experiment [2]; 0.05 µM in experiment [3]; 1.16 µM in experiment [5]; 0.29 µM in experiment [7]; 0.0049 µM in experiment [6].
